In patent US20160213777A1, “Novel Delivery Compositions and Methods of Using Same” (THOMAS JEFFERSON UNIVERSITY, priority 2013, published 2016):

What was measured:
A549 cells [1] = assay: Cytotoxicity MTT assay of bevacizumab particles; type: cell-based; conditions: 72 h
Method: Cells (1×10^4 cells/well) were seeded in 96 well plates and incubated at 37° C. in a humidified air atmosphere with 5% carbon dioxide for 48 h. […] At the end of incubation (after 72 h), MTT reagent was added to each well and incubated for 3 h.
The medium was aspirated, and 100 μL of DMSO was added. The plate was read at 560 nm. Cells treated with DMSO and relevant surfactants were used as a control.
The control contained the appropriate concentrations of the relevant surfactant. (FIGS. 16-18).

[2] = Scanning electron microscopy (SEM) particle size estimate; type: physicochemical
Source text: The morphology of the manufactured nanoparticles and the unprocessed IgG was observed by scanning electron microscopy using the Zeiss Supra 50VP system (Zeiss, Germany). Powders were mounted onto aluminum stubs using double sided adhesive tape and were made electrically conductive by coating in a thin layer of gold. The coated samples were then examined under microscope operated at an acceleration voltage of 5 kV.

A549 cells [3] = assay: Uptake/internalization of FITC-labeled bevacizumab particles (flow cytometry, fluorescence microscopy); type: cell-based; conditions: 100 μg/mL FITC-labeled particles, 60 min
Method: (§1) A549 and MRC-5 cells (2×10^4 cells/well) were seeded in 8 well coated glass slides and incubated for 48 h. […] Cells were washed with PBS, fixed with 2% paraformaldehyde, and incubated at room temperature for 20 min. PBS washed cells were then blocked with 5% BSA for 30 min at room temperature. Cells were stained with AlexaFluoro-555 labeled wheat germ agglutinin (WGA) and 4′,6-diamidino-2-phenylindole (DAPI) to visualize plasma membrane and nucleus respectively. Cells were mounted and observed under a Leica DMI 6000B fluorescence microscope (Leica Microsystems, Exton, Pa.).
(§2) About 1 million cells/well were seeded in a 12 well plate and incubated for 48 h. […] The cells were trypsinized and centrifuged at 300 g for 5 min, and the pellet was washed and resuspended in 0.4% trypan blue (TB) solution in PBS to quench the extracellular FITC fluorescence. TB, while quenching the FITC fluorescence of non-internalized particles, causes them to fluoresce red whereas an internalized particle will fluoresce green. […] The samples were then analyzed by flow cytometry (BDFACS caliber). 10,000 cells were measured in each sample.
Mean fluorescence intensity obtained from this experiment was compared to that obtained when the A549 cells were treated with 100 μg/mL FITC-labeled bavacizumab nanoparticles alone. […]

MRC-5 cells = assay: as above; type: cell-based; conditions: 100 μg/mL FITC-labeled particles, 60 min
Method: as §1
as §2, with “sample. […]” for “sample.”
A549 and MRC-5 cell lines were incubated with FITC-labeled nanoparticles for 15 and 60 minutes. The cells were then washed with D-PBS and extracellular florescence was quenched with trypan blue so that only internalized cells were analyzed. 10,000 cells were measured in each sample.

[4] = Photon correlation spectroscopy (PCS): particle size and zeta potential, bevacizumab nanoparticles; type: physicochemical; conditions: 5 mg/ml bevacizumab solution
Method: Particle size (by intensity) and zeta potential measurements were performed by PCS using Zetasizer Nano ZS (Malvern Instruments, U.K.). The pellets formed after centrifugation at 6,500 rpm for 5 min were thoroughly rinsed and resuspended in deionized water by vortexing. The samples were then sonicated for approximately 5 min. Intensity autocorrelation was measured at a scattering angle (θ) of 173° at 25° C. The Z-average and polydispersity index (PDI) were recorded in triplicate. For zeta potential measurement, the samples were loaded into a universal dip cell (Malvern Instruments, U.K.) before recording the zeta potential in triplicate.
The surfactants seemed to have a concentration-dependent influence on the size and zeta potential of the nanoparticles. […] According to the Manufacturer's Manual, PCS is based on Brownian motion and particles with size above 10 μm tend to quickly sediment. In certain embodiments, under these circumstances, size recorded by the instrument may be due to artifact. […] For surfactant controls, distinct concentrations of the surfactants used in the nanoprecipitation process were dissolved in 0.01 N HCl and titrated with 0.1 N NaOH up to pH 8.4. In the case of nanoparticles, an increase in size was observed as the concentration of the non-ionic surfactant in the precipitation medium increased.

[5] = Far-UV circular dichroism, secondary structure estimated with K2D2; type: physicochemical; conditions: bevacizumab particles reconstituted in acetate buffer; K2D2 estimate
Method: CD measurements were performed with Jasco J-810 Spectropolarimeter (Jasco, Md., USA) operating at 20° C. using 0.5 mg/ml of reconstituted solutions of IgG nanoparticles in acetate buffer. CD spectra were obtained in the far UV region (260-190 nm) using a quartz cell of 0.1 path length in order to probe the stability of the secondary structure of the manufactured nanoparticles. A scanning speed of 50 nm/min with a 0.5-second response time was applied followed by five accumulations for each sample. The experiment was repeated in triplicate for each sample. Surfactants dissolved in the acetate buffer at corresponding concentrations were used as blanks. Signals from blanks were subtracted from sample signals. The CD signals were converted to mean residue weight ellipticity and the percentage of the secondary structure retained was estimated using the K2D2 software.
Far UV CD was used to probe for perturbations in the secondary structure of the antibodies following reconstitution in acetate buffer (pH 6). This was done to test whether the secondary structure of the antibodies was still intact, as major perturbation in the secondary structure of proteins may lead to loss or reduction of biological activity.

A549 cells [6] = assay: Cytotoxicity MTT assay of siRNA/nanoparticle formulations and erlotinib; type: cell-based
Method: MTT assay was used to determine the effect of siG12S loaded nanoparticles on the proliferation of A549 cells. Chemosensitivity of siG12S-treated cells to erlotinib was also assessed. Cells (1×10^4 per well) were seeded in 96 well plates and incubated at 37° C. in a humidified atmosphere with 5% carbon dioxide for 24 h. The cells were then treated with different formulations of nanoparticles, siG12S and erlotinib. Cells were incubated for 72 h. 10 μL of 12 Mm MTT reagent were then added to each well. This was then incubated at 37° C. for 4 h. The medium was aspirated and 50 μL of sterile DMSO was added to each well and mixed thoroughly with pipet. The cells were then incubated at 37° C. for 10 min. The plate was read at 540 and 650 nm.

[7] = in water; cited from earlier work
TNF-α = assay: Immunogenicity and inflammatory reaction in murine macrophages (ELISA); type: cell-based; conditions: RAW 264.7, 24 h
Method: (§3) RAW 264.7 murine macrophage cells were seeded in a 96 well plate at a density of 1.5×10^5/well at 37° C. in humidified air with 5% carbon dioxide for 24 h. The cells were then treated with 100 μg/mL of LPS, naked siG12S, siG12S-loaded IP-nanoparticles, siG12S-loaded IgG-nanoparticles and culture medium seperately for 24 h. TNF-α and IL-6 concentrations in supernatant from cultured cells were analyzed using the respective ELISA kit according to the manufacturer's instructions.

IL-6 = assay: as above; type: cell-based; conditions: RAW 264.7, 24 h
Method: as §3

serum nuclease = assay: siRNA stability in serum (50% FBS, gel electrophoresis); type: in vitro ADME; conditions: 37° C., up to 48 h
Method: IgG-poloxamer-188 nanoparticles (IP-nanoparticles) loaded with siG12S, IgG nanoparticles loaded with siG12S and naked siG12S were incubated in F12K medium containing 50% FBS at 37° C. Aliquots of 5 μl samples were taken at time points up to 48 h. Samples were immediately mixed with 2% SDS, and 5 μl TBE urea sample buffer. The mixture was then heated at 70° C. for 3 minutes in order to deactivate the nuclease enzyme in the serum. The integrity of the siRNA was then analyzed using 15% TBE-ureal gel. siRNA bands were visualized by ethidium bromide staining.
Serum stability was assessed by incubating the naked siRNA and siRNA-loaded nanoparticles in 50% serum and the integrity of the siRNA assessed using gel electrophoresis at different time points. FIG. 41 illustrates the finding that naked siRNA was intact immediately after incubation but degraded after 1 h. In contrast, siRNA in IP nanoparticles was intact after 48 h. siRNA in IgG-nanoparticles was also intact up to 24 h. However, IgG-nanoparticles were not able to protect the siRNA after 24 h.

KRAS = assay: In vitro gene silencing, western blot analysis; type: cell-based; conditions: A549 cells, 50 nM siRNA, 96 h
Method: A549 cells were transfected 24 h after seeding in a 6-well plate at density of 2×10^5/well. Naked siG12S and control siRNA (Thermal Scientific, Amarillo, Tex.) were transfected with lipofectamine RNAimax transfection reagent (Invitrogen). siRNA-loaded IP and IgG nanoparticles were incubated with the cells at 37° C. in a humidified air environment with 5% carbon dioxide for 96 h. The total concentration of siRNA used in all experiments was 50 nM.
Cells were washed twice with ice-cold PBS and then lysed in M-Per mammalian lysis buffer (Thermo Scientific). The protein concentration of the lysates was determined with the Bradford reagent (Bio Rad), and equal amounts of protein were subjected to SDS-PAGE using a 10% gel. Separated proteins were transferred to a nitrocellulose membrane, which was then exposed to 5% nonfat dried milk in TBS containing 0.1% Tween 20 (0.1% TBST) for 1 h at room temperature and incubated overnight at 4° C. with antibodies against KRAS (Abcam, Cambridge, Mass.) or actin (Sigma). The membranes were then washed with 0.1% TBST before being incubated with horseradish peroxidase-conjugated goat antibodies to rabbit (Santa Cruz Biotechnology). Immune complexes were detected with chemiluminescence reagents (Perkin-Elmer Life Science).

Compound: bevacizumab [Unprocessed bevacizumab]
- IC50 (A549 cells [1]): ~1800 nM
- particle size estimated from SEM [2]: approximately 20 μm
- internalization by A549 cells (A549 cells [3]): not internalized
- internalization by MRC-5 cells (MRC-5 cells): not internalized
- Zeta potential (mV) [4]: −4.6 ± 0.3 mV
- % alpha helix [5]: 7.52%
- % β-sheet [5]: 32.19%

Compound: C#Cc1cccc(Nc2ncnc3cc(OCCOC)c(OCCOC)cc23)c1 [erlotinib]
- sensitivity of A549 cells to erlotinib (A549 cells [6]; alone or with siG12S (50 nM)-loaded IP nanoparticles): resistant

Compound: Polyoxyethylene (20) sorbitan monolaurate [Tween 20]
- critical micelle concentration (CMC) [7]: 0.0075%

Compound: Polyoxyethylene (80) sorbitan monooleate [Tween 80]
- critical micelle concentration (CMC) [7]: 0.0017%

Compound: polyethylene glycol monooleyl ether [Brij 97]
- critical micelle concentration (CMC) [7]: 0.029%

Compound: naked siG12S: siRNA against mutated KRAS G12S; sense GUUGGAGCUAGUGGCGUAGdTdT (SEQ ID NO:1), antisense SEQ ID NO:2 (sense GUUGGAGCUAGUGGCGUAGNN; antisense CUACGCCACUAGCUCCAACNN; dTdT overhangs, chemistry not fully specified)
- growth of A549 cells (A549 cells [6]; 50 nM siRNA, 72 h): did not inhibit the growth
- production of TNF-α (TNF-α): upgraded the production
- production of IL-6 (IL-6): upgraded the production
- time siRNA remained intact in serum (serum nuclease): < 1 h
- KRAS expression (knockdown) (KRAS): major reduction in KRAS expression
